US20070082920A1, “NAD+-dependent DNA ligase inhibitors” (priority 2005, published 2007)

Tests used:
[1] = test system: Staphylococcus aureus ATCC 29213; experiment: MIC, broth microdilution (CLSI), S. aureus; assay type: cell-based; conditions: lowest concentration inhibiting visual growth
Procedure: (§1) The compounds of Formulas 1-VIII were evaluated as inhibitors of NAD+-dependent DNA ligase inhibitors. Their antimicrobial activity was evaluated against bacteria using the broth microdilution method as described by Clinical Laboratory Standards Institute (formerly NCCLS). Activity was assessed against the following bacterial strains: Staphylococcus aureus ATCC 29213, Streptococcus pneumoniae ATCC 49619, Escherichia coli ATCC 25922, E. coli CGSC 5633 (ToIC mutant), Haemophilus influenzae ATCC 49766, Streptococcus pyogenes ATCC 19615, Moraxella catterhalis ATCC 25238, Enterococcus faecalis ATCC 29212. The lowest concentration of compound which inhibited visual growth of each bacterium, the minimum inhibitory concentration (MIC), was determined.

[2] = test system: Haemophilus influenzae ATCC 49766; experiment: MIC, broth microdilution (CLSI), H. influenzae; assay type: cell-based; parameters: unit not given beside the values
Procedure: as §1

[3] = test system: Streptococcus pyogenes ATCC 19615; experiment: MIC, broth microdilution (CLSI), S. pyogenes; assay type: cell-based
Procedure: as §1

[4] = Acute toxicity, Alamar blue cell viability, HepG2; assay type: cell-based; conditions: human
Procedure: (§2) Acute toxicity was assessed against two mammalian cell lines, HepG2 (human hepatocyte) and NIH 3T3 (mouse fibroblast). Cell viability was measured by an in vitro assay using Alamar blue. The concentration of compound which inhibited 50% of the cell growth (LC50) was determined.

[5] = test system: Enterococcus faecalis ATCC 29212; experiment: MIC, broth microdilution (CLSI), E. faecalis; assay type: cell-based; parameters: unit not given here
Procedure: as §1

[6] = test system: Escherichia coli ATCC 25922; experiment: MIC, broth microdilution (CLSI), E. coli ATCC 25922; assay type: cell-based
Procedure: as §1

[7] = test system: Streptococcus pneumoniae ATCC 49619; experiment: MIC, broth microdilution (CLSI), S. pneumoniae; assay type: cell-based
Procedure: as §1

[8] = Acute toxicity, Alamar blue cell viability, NIH 3T3; assay type: cell-based; conditions: mouse
Procedure: as §2

[9] = test system: E. coli CGSC 5633 (ToIC mutant); experiment: MIC, broth microdilution (CLSI), E. coli CGSC 5633; assay type: cell-based, Escherichia coli; parameters: unit not given beside the values
Procedure: as §1

[10] = target: DNA ligase enzyme (NAD+-dependent DNA ligase) (Streptococcus pneumoniae serotype 4, UniProt Q97QT2); experiment: DNA ligase AMP release assay (luciferase readout); assay type: biochemical; conditions: purified enzyme from S. pneumoniae
Sequence of DNA ligase enzyme (NAD+-dependent DNA ligase) (Q97QT2 whole entry): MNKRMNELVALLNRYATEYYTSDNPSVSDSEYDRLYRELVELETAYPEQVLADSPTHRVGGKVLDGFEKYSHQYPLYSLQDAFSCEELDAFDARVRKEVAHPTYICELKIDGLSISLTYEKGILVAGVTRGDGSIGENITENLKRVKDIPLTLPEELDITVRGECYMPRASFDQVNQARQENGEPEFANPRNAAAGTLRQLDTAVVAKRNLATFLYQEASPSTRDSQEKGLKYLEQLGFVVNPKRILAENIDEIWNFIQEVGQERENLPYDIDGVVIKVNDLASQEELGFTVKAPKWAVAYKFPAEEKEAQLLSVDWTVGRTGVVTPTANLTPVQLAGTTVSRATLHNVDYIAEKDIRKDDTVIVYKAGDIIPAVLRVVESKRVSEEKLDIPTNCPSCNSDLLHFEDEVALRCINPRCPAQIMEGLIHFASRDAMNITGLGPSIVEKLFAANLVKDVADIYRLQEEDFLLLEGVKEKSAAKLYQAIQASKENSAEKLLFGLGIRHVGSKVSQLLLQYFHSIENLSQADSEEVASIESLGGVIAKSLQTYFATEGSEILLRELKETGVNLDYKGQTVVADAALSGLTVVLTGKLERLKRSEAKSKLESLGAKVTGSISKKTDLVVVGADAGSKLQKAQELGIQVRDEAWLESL
Procedure: Activity against DNA ligase enzyme was measured using purified enzyme from S. pneumoniae. An AMP release assay was used to assess activity of compounds against the enzyme. AMP, released as a result of the ligation of oligonucleotides, is converted to ATP, which is then measured using luciferase enzyme. The concentration of compound which inhibited 50% of the ligation activity of the enzyme (IC50) was determined.

[11] = test system: Moraxella catterhalis ATCC 25238; experiment: MIC, broth microdilution (CLSI), M. catarrhalis; assay type: cell-based
Procedure: as §1

[12] = test system: NAD+-dependent DNA ligase; conditions: specific DHFR inhibitors; background; cited from earlier work

CN(c1nc2nc(N)nc(N)c2c2c1CCCC2)C1CCCCC1 [VII-b]
MIC S. aureus ATCC 29213 [1]: 8
MIC H. influenzae [2]: 64
MIC S. pyogenes [3]: 4
CC50 [4]: 19.2 µM
MIC E. faecalis [5]: 4
MIC E. coli ATCC 25922 [6]: 128
MIC S. pneumoniae [7]: 8
CC50 [8]: 1.37 µM
MIC E. coli CGSC 5633 [9]: <0.125
IC50 [10]: 5.94 µM
MIC M. catarrhalis [11]: 4

CN(Cc1cnc2nc(N)nc(N)c2n1)c1ccc(C(=O)N[C@@H](CCC(=O)O)C(=O)O)cc1 [methotrexate]
inhibition of NAD+-dependent DNA ligase (in words) [12]: not to inhibit

COc1cc(Cc2cnc(N)nc2N)cc(OC)c1OC [trimethoprim]
inhibition of NAD+-dependent DNA ligase (in words) [12]: not to inhibit
